Measured values: publication PMC6403188, “Species-Specific Structural Requirements of Alpha-Branched Trehalose Diester Mincle Agonists” (Frontiers in Immunology, 2019)

What was measured:
THP-1 cells = assay: TNFα production from THP-1 cells (ELISA); type: cell-based, human; conditions: plate-coated compound, 24 h
Protocol: Supernatants were harvested from treated cells following 18–24 h of incubation. Supernatants were analyzed using a DuoSet TNFα ELISA (R&D Systems, Minneapolis, MN) or Luminex multiplex panel for analytes TNFα, IL-1β, IL-6, IFNγ, IL-12p70, and IL-23 (R&D Systems) per the manufacturer's instructions. Multiplex analysis was performed using a Luminex 200 instrument (Luminex Corporation) and analyzed with StarStation2.3 software. ELISAs were read on a plate reader at 450 nm and cytokine concentration was calculated by fitting the standard curve OD values to a 4-parameter logistical model using curve fitting software (XLfit, IDBS, Alameda, CA).
Next, investigation into activity of the alpha-branched TDE compounds was extended to include both human and murine monocytic cell lines, THP-1 and RAW264.7, respectively. These cell lines have previously been reported as responsive to the Mincle receptor agonists TDM and TDB ([30], [31]).
Figure 3 TNFα production from human THP-1 cells in response to stimulation with synthetic αTDE compounds. The indicated compounds were dissolved in 50% isopropanol/isooctane, serially diluted in vehicle and then dried to the bottom of a tissue culture plate. THP-1 cells were applied to the compound-coated plates and incubated at 37°C; supernatant was harvested 24 h later and analyzed for TNFα via ELISA (A-E). Results from the 200 μg/ml concentration vs. each compounds acyl chain length are shown in (F). Data points are average of at least two independent experiments ± SD.

mouse Mincle = biological target: T1, mouse Mincle (Mus musculus, UniProt Q9R0Q8); assay: HEK cells expressing mouse Mincle with NF-κB-driven SEAP reporter; type: cell-based
T1 construct: host or cells: HEK (HEK-Blue) cells with NF-κB-driven SEAP reporter
T1 sequence (Q9R0Q8 1-214): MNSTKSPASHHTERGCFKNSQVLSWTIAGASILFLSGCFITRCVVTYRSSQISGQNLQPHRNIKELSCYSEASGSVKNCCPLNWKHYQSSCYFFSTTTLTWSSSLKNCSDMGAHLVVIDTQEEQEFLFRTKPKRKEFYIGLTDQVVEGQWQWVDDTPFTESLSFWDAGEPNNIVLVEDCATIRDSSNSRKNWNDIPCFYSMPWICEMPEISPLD
Protocol: (§1) Human and mouse Mincle expressing HEK cells were obtained from Invivogen (San Diego, CA). Cells were cultured according to the manufactures instructions in DMEM with 10% FBS, 50 U/ml penicillin, […] streptomycin, […] Normocin, 2 mM L-glutamine, 30 μg/ml blasticidin, 1 μg/ml puromycin and 1x HEK-Blue™ CLR Selection. For assay, indicated compounds were serially diluted in diluent (50%IPA/50% isooctane), 20 μl of a 10x final concentration were applied to the bottom of a 96-well tissue culture plate and the solvent was evaporated for >1 h in a biosafety hood. HEK cells were applied to the plates at a density of 3 × 10^5 cells/well and incubated for 18–24 h at 37°C. Cell supernatants were harvested and analyzed via the manufacturer's instructions using Hek-Blue^TM Detection. SEAP activity was assessed by reading the optical density (OD) at 620–655 nm with a microplate reader; data are expressed as the fold change in OD over vehicle treated cells.
(§2) To investigate the capacity of these molecules to bind to and activate the Mincle receptor, we used human embryonic kidney (HEK) cells expressing the human or mouse Mincle receptor along with an NF-κB-driven secreted embryonic alkaline phosphatase (SEAP) reporter. Many of the αTDE compounds were able to induce production of SEAP in a dose dependent manner (Figure 2). HEK null cells (HEK cells containing the NF-kB reporter without Mincle receptor) were used as a negative controls to confirm the receptor specificity of the compounds in HEK cells expressing human or mouse Mincle reporter (Supplemental Figure 4). […] The relative activity of TDM and TDB in the human and mouse HEK cells is consistent with the results reported by others ([20]). […] This synthetic version is a shorter chain version of the lipid-derived one reported to be “human-specific” ([28]).
(§3) Figure 2 Activation of human or mouse Mincle in response to synthetic αTDE compounds. The indicated compounds were dissolved in 50% isopropanol/isooctane, serially diluted in vehicle and then dried to the bottom of a tissue culture plate. HEK cells transfected with human (A–C) or mouse (D–F) Mincle and an NF-κB-driven SEAP reporter were incubated with the compounds for 24 h followed by assessment of the supernatants for SEAP levels. Data are represented as fold change in OD650 over vehicle treated cells. Graphs are mean values from three independent experiments ± SEM. Table in (G) represents the average calculated EC50 and average max SEAP value (± SD, n = 3) for each compound in each cell line. […]

human Mincle = biological target: T2, human Mincle (Homo sapiens, UniProt Q9ULY5); assay: HEK cells expressing human Mincle with NF-κB-driven SEAP reporter; type: cell-based; conditions: plate-coated compound, 24 h
T2 construct: host or cells: HEK (HEK-Blue) cells with NF-κB-driven SEAP reporter
T2 sequence (Q9ULY5 1-219): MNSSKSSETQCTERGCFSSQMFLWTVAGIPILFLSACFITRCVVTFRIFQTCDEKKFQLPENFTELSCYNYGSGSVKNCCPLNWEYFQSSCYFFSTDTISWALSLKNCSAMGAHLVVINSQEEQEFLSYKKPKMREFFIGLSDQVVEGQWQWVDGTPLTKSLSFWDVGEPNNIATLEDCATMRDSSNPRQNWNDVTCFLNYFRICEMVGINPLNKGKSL
Protocol: as §1, §2, §3

[1] = tested on: Hek Blue human or mouse Mincle-expressing cells; type: cell-based; conditions: top concentrations, 24 h; compared with vehicle only-treated cells

CCCCCCCCCCCCCCCCCCCCCC(=O)OC[C@H]1O[C@H](O[C@H]2O[C@H](COC(=O)CCCCCCCCCCCCCCCCCCCCC)[C@@H](O)[C@H](O)[C@H]2O)[C@H](O)[C@@H](O)[C@@H]1O [TDB, trehalose dibehenate, reference compound]
TNFα induction from THP-1 cells (in words) (THP-1 cells): activity at the highest concentrations tested | Relative activity in mouse vs. human Mincle HEK cells (mouse Mincle; comparison of mouse and human Mincle receptor transfected HEK cells): more potent in the mouse vs. the human | SEAP induction / activation of mouse Mincle-expressing HEK cells (in words) (mouse Mincle; plate-coated compound, 24 h): robust ability to activate | SEAP induction / activation of human Mincle-expressing HEK cells (in words) (human Mincle): robust ability to activate | Cell viability of Mincle HEK cells [1]: marked decreases in viability
